Results reported in ChEMBL document CHEMBL1154657, “Heterobiaryl purine derivatives as potent antiproliferative agents: inhibitors of cyclin dependent kinases. Part II” (Bioorg Med Chem Lett, 2009).

What was measured:
[1] = target: Cyclin-dependent kinase 2/cyclin E (Homo sapiens, UniProt P24941); assay: Inhibition of Cdk2/cyclinE; format: protein-complex assay
[2] = target: Cyclin-dependent kinase 2/cyclin A (Homo sapiens, UniProt P24941); assay: Inhibition of recombinant Cdk2/cyclinA; format: protein-complex assay
[3] = Growth inhibition of human HeLaS3 cells; format: functional; settings: HeLa S3

Structure (SMILES) | IC50 [1] | IC50 [2] | GI50 [3]
CC(C)n1cnc2c(NCc3ccc(-c4ccccc4)cn3)nc(N[C@H]3CC[C@H](N)CC3)nc21 | 400 nM | 500 nM | 500 nM
CC(C)n1cnc2c(NCc3ccc(-c4ccccc4F)s3)nc(N[C@H]3CC[C@H](N)CC3)nc21 | 80 nM | 400 nM | 300 nM
CC(C)n1cnc2c(NCc3ccc(-c4ccccc4)nc3)nc(N[C@H]3CC[C@H](N)CC3)nc21 | 40 nM | 100 nM | 71 nM
CC(C)n1cnc2c(NCc3ccc(-c4ccccn4)cc3)nc(N[C@H]3CC[C@H](N)CC3)nc21 | 100 nM | 200 nM | 44 nM
CC(C)n1cnc2c(NCc3ccc(-c4cccs4)cc3)nc(N[C@H]3CC[C@H](N)CC3)nc21 | 90 nM | 100 nM | 48 nM
CC(C)n1cnc2c(NCc3ccc(-n4cccn4)nc3)nc(N[C@H]3CC[C@H](N)CC3)nc21 | 50 nM | 70 nM | 20 nM
CC(C)n1cnc2c(NCc3coc(-c4ccccc4)c3)nc(N[C@H]3CC[C@H](N)CC3)nc21 | 150 nM | 300 nM | 330 nM
CC(C)n1cnc2c(NCc3csc(-c4ccccc4)n3)nc(N[C@H]3CC[C@H](N)CC3)nc21 | 400 nM | 700 nM | 4000 nM
CC(C)n1cnc2c(NCc3ccc(-c4cccs4)s3)nc(N[C@H]3CC[C@H](N)CC3)nc21 | 55 nM | 140 nM | 300 nM
Cc1csc(-c2ccc(CNc3nc(N[C@H]4CC[C@H](N)CC4)nc4c3ncn4C(C)C)cc2)c1 | 200 nM | 500 nM | 400 nM
CC(C)n1cnc2c(NCc3ccc(-c4cccnc4)cc3)nc(N[C@H]3CC[C@H](N)CC3)nc21 | 70 nM | 300 nM | 140 nM
CC(C)n1cnc2c(NCc3ccc(-c4cccnc4)s3)nc(N[C@H]3CC[C@H](N)CC3)nc21 | 100 nM | 200 nM | 200 nM
CC(C)n1cnc2c(NCc3ccc(-c4ccccn4)nc3)nc(N[C@H]3CC[C@H](N)CC3)nc21 | 30 nM | 90 nM | 310 nM
CC(C)n1cnc2c(NCc3cnc(-c4ccccc4)s3)nc(N[C@H]3CC[C@H](N)CC3)nc21 | < 50 nM | < 50 nM | 200 nM
CC(C)n1cnc2c(NCc3ccc(-c4ccsc4)s3)nc(N[C@H]3CC[C@H](N)CC3)nc21 | 200 nM | 300 nM | 150 nM
CC(C)n1cnc2c(NCc3ccc(-n4cccn4)cc3)nc(N[C@H]3CC[C@H](N)CC3)nc21 | 950 nM | 140 nM | 170 nM
CC(C)n1cnc2c(NCc3ccc(-c4cccc(F)c4)s3)nc(N[C@H]3CC[C@H](N)CC3)nc21 | 90 nM | 250 nM | 190 nM
CC(C)n1cnc2c(NCc3ccc(-c4ccsc4)nc3)nc(N[C@H]3CC[C@H](N)CC3)nc21 | < 30 nM | 100 nM | 27 nM

Structure (SMILES) | IC50 [1] | IC50 [2] | GI50 [3]
CC(C)n1cnc2c(NCc3ccc(-n4cccc4)cc3)nc(N[C@H]3CC[C@H](N)CC3)nc21 | 200 nM | 200 nM | 20 nM
CC(C)n1cnc2c(NCc3ccc(-c4ccc(F)cc4)s3)nc(N[C@H]3CC[C@H](N)CC3)nc21 | 300 nM | 500 nM | 390 nM
Cc1ccc(-c2ccc(CNc3nc(N[C@H]4CC[C@H](N)CC4)nc4c3ncn4C(C)C)cc2)s1 | 200 nM | 600 nM | 400 nM
CC(C)n1cnc2c(NCc3ccc(-c4ccccn4)s3)nc(N[C@H]3CC[C@H](N)CC3)nc21 | 44 nM | 1500 nM | 270 nM
CC(C)n1cnc2c(NCc3ccc(-c4cccs4)nc3)nc(N[C@H]3CC[C@H](N)CC3)nc21 |  | 900 nM | 98 nM
CC(C)n1cnc2c(NCc3ccc(-c4cccc(F)c4)nc3)nc(N[C@H]3CC[C@H](N)CC3)nc21 | 40 nM | 80 nM | 16 nM
COc1cccc(-c2ccc(CNc3nc(N[C@H]4CC[C@H](N)CC4)nc4c3ncn4C(C)C)s2)c1 | 100 nM | 300 nM | 160 nM
CC(C)n1cnc2c(NCc3ccc(-c4ccsc4)cc3)nc(N[C@H]3CC[C@H](N)CC3)nc21 | 200 nM | 400 nM | 40 nM
CC(C)n1cnc2c(NCc3csc(-c4ccccc4)c3)nc(N[C@H]3CC[C@H](N)CC3)nc21 | 85 nM | 250 nM | 370 nM
CC(C)n1cnc2c(NCc3ccc(-c4ccccc4)cc3)nc(N[C@H]3CC[C@H](N)CC3)nc21 | 100 nM | 400 nM | 
CC(C)n1cnc2c(NCc3ccc(-c4ccoc4)s3)nc(N[C@H]3CC[C@H](N)CC3)nc21 | 200 nM | 600 nM | 2000 nM
Cc1cccc(-c2ccc(CNc3nc(N[C@H]4CC[C@H](N)CC4)nc4c3ncn4C(C)C)s2)c1 | 200 nM | 700 nM | 200 nM
CC(C)n1cnc2c(NCc3ccc(-c4ccc(Cl)s4)cc3)nc(N[C@H]3CC[C@H](N)CC3)nc21 | 300 nM | 400 nM | 380 nM
Cc1csc(-c2ccc(CNc3nc(N[C@H]4CC[C@H](N)CC4)nc4c3ncn4C(C)C)s2)n1 |  | 100 nM | 40 nM
CC(C)n1cnc2c(NCc3ccc(-c4ccco4)cc3)nc(N[C@H]3CC[C@H](N)CC3)nc21 | 90 nM | 150 nM | 30 nM
CC(C)n1cnc2c(NCc3ccc(-c4ccco4)s3)nc(N[C@H]3CC[C@H](N)CC3)nc21 | 100 nM | 200 nM | 300 nM
CC[C@H](CO)Nc1nc(NCc2ccccc2)c2ncn(C(C)C)c2n1 [SELICICLIB] |  |  | 20000 nM
